Data as given in US9085593B2, “Therapeutic agent for arthrosis” (SANSHO CO., LTD., priority 2011, dated 2015).
Several values for one entry are separate records, joined by “and”; a condition that tells them apart may be missing. Equal entries are not always repeated.

System: osteoarthritis in rabbit knee
Assay: Pain assessment (weight distribution across both hind limbs), rabbit knee osteoarthritis model
Format: in vivo, rabbits (Kbs:NZW)
Conditions: for Weight distribution, Mean / Left hind limb / Right hind limb / Weight distribution (%) on treated limb (right hind limb): 10 μg/rabbit into joint cavity; for Weight distribution, Mean: group mean n=6; for Left hind limb / Right hind limb / Weight distribution (%) on treated limb (right hind limb): individual animals 201-206, listed as Test substance, sodium salt
Method: Twelve 11- to 12-week-old male rabbits (Kbs:NZW) were used. Rabbits were reared in separate cages (one rabbit per cage) at 14.4° C. to 24.9° C. under light (12 hours from 7:00 am to 7:00 pm) with continuous ventilation. Rabbits were allowed to eat 150 g of feed (CR-3, CLEA Japan, Inc.) per day and to drink tap water.
(9Z)-9-Octadecenoic acid-(2-hydroxy-2-oxide-1,2-oxaphospholan-4-yl)methyl ester sodium salt (C18:1-cPA; hereafter, referred to as “ScPA”) was used.
Hair in the vicinity of the knee joint of the right hind limb of a rabbit was shaved using electrical clippers under deep anesthesia, and the shaved area was disinfected with Isodine. The outer coat on the medial aspect of the right hind limb was incised with a surgical knife, the boundary between the medial aspect and the articular capsule of the patellofemoral ligament was further incised, and the medial patellofemoral ligament was then dissected. Thereafter, the articular capsule was spread wide open to expose the medial meniscus, which was then completely removed. Following the removal of the meniscus, tissue and epidermis in the vicinity of the articular capsule were sutured. At the time of suturing, the site of operation was washed with physiological saline (titer: 500 mg/20 ml) containing antibiotics (Viccillin, Meiji Seika Pharma Co., Ltd.).
After the model animals were prepared, they were divided into two groups each consisting of 6 individuals while averaging body […] (i.e., the vehicle administered group of Animal Numbers 101 to 106 and the test substance (ScPA) administered group of Animal Numbers 201 to 206).
The test compound and the vehicle were administered in the manner described below. • Route of administration: into the joint cavity • Site of administration: right hind limb (treated limb) • Timing of administration: on days 7, 11, 14, 18, 21, 25, 28, 32, 35, and 39 • Dosage: Test compound: 10 μg/rabbit (volume: 0.2 ml) • Vehicle: 0.2 ml/rabbit • Means of administration: with the use of a 1.0-ml syringe (Terumo Corporation) and a 27 G injection needle (Terumo Corporation) (1-5) Pain Assessment (Weight Distribution Across both Hind Limbs) Frequency of Measurement:
Measurement was carried out seven times in total: i.e., before treatment and 1, 2, 3, 4, 5, and 6 weeks after the treatment.
Body weights loaded on the right hind limb and the left hind limb were separately measured using a weight scale, and the weight distribution on the treated limb (the right hind limb) was determined using the following equation. Weight distribution (%) on treated limb (right hind limb)=[right hind limb (kg)/(right hind limb (kg)+left hind limb (kg))]×100 (1-6) Swelling Assessment (Articular Swelling of both Hind Limbs) Frequency of Measurement: […]

## CCCCCCCC/C=C\CCCCCCCC(=O)OCC1COP(=O)([O-])C1.[Na+] (centres unmarked) [ScPA, (9Z)-9-Octadecenoic acid-(2-hydroxy-2-oxide-1,2-oxaphospholan-4-yl)methyl ester sodium salt]
Day 0 (before treatment)
  Weight distribution, Mean: 49.1%
  Left hind limb: 610 g and 400 g and 550 g and 460 g and 260 g and 310 g
  Right hind limb: 660 g and 320 g and 410 g and 490 g and 270 g and 350 g
  Weight distribution (%) on treated limb (right hind limb): 52% (2×) and 44% and 43% and 51% and 53%
Day 7
  Weight distribution, Mean: 32.1%
  Left hind limb: 1010 g and 410 g and 900 g and 750 g (2×) and 880 g
  Right hind limb: 660 g and 160 g and 140 g and 520 g and 430 g and 460 g
  Weight distribution (%) on treated limb (right hind limb): 40% and 28% and 13% and 41% and 33% and 38%
Day 14
  Weight distribution, Mean: 39.4%
  Left hind limb: 770 g and 400 g and 640 g and 810 g and 700 g and 600 g
  Right hind limb: 520 g and 200 g and 320 g and 630 g and 380 g and 610 g
  Weight distribution (%) on treated limb (right hind limb): 40% and 33% (2×) and 44% and 35% and 50%
Day 21
  Weight distribution, Mean: 43.0%
  Left hind limb: 710 g and 440 g and 350 g and 580 g (2×) and 760 g
  Right hind limb: 380 g and 370 g and 720 g and 250 g and 450 g and 440 g
  Weight distribution (%) on treated limb (right hind limb): 35% and 46% and 67% and 30% and 37% and 43%
Day 28
  Weight distribution, Mean: 47.0%
  Left hind limb: 700 g and 290 g and 260 g and 750 g and 710 g and 800 g
  Right hind limb: 600 g (2×) and 150 g and 390 g and 660 g and 780 g
  Weight distribution (%) on treated limb (right hind limb): 46% (2×) and 34% and 60% and 47% and 49%
Day 35
  Weight distribution, Mean: 39.1%
  Left hind limb: 650 g and 800 g and 470 g and 1030 g and 570 g and 870 g
  Right hind limb: 350 g (2×) and 380 g and 630 g and 560 g and 510 g
  Weight distribution (%) on treated limb (right hind limb): 35% and 30% and 45% and 38% and 50% and 37%
Day 42, p=0.0053 vs vehicle
  Weight distribution, Mean: 46.7%
Day 42
  Left hind limb: 620 g and 700 g and 380 g and 820 g and 840 g and 580 g
  Right hind limb: 440 g and 510 g and 630 g and 660 g and 520 g and 610 g
  Weight distribution (%) on treated limb (right hind limb): 42% (2×) and 62% and 45% and 38% and 51%
After day 14 up to day 42
  weight loaded on the treated limb (the right hind limb) compared with the vehicle administered group: maintained at higher levels
